Counter-ions that a name gives are not always drawn. Like-named read-outs stand apart in the source and are kept apart here.
Tests used:
[1] = biological target: T1, SARS-CoV-2 PLpro (nsp3 1564–1878) (Severe acute respiratory syndrome coronavirus 2, UniProt P0DTD1); assay: biochemical; parameters: FRET-quenched peptide (Pro3) cleavage by PLpro, 10 min pre-incubation, slope over 20 min, normalised to no-compound control; conditions: low concentration screen
[2] = biological target: T1, SARS-CoV-2 PLpro (nsp3 1564–1878); assay: biochemical; parameters: FRET-quenched peptide (Pro3) cleavage by PLpro, 10 min pre-incubation, slope over 20 min, normalised to no-compound control; conditions: high concentration screen
[3] = Well no.=1846, read-out: % of control remaining
[4] = Well no.=7380, read-out: % of control remaining
[5] = Well no.=3514, read-out: % of control remaining
[6] = Well no.=7496, read-out: % of control remaining
[7] = Well no.=5251, read-out: % of control remaining
[8] = read-out: % of control remaining, Well no.=1861
[9] = read-out: % of control remaining, Well no.=6467
[10] = Well no.=1642, read-out: % of control remaining
[11] = Well no.=7285, read-out: % of control remaining
[12] = Well no.=8487, read-out: % of control remaining
[13] = Well no.=3853, read-out: % of control remaining
[14] = Well no.=2628, read-out: % of control remaining
[15] = Well no.=4454, read-out: % of control remaining
[16] = Well no.=372, read-out: % of control remaining
[17] = Well no.=1531, read-out: % of control remaining
[18] = Well no.=7733, read-out: % of control remaining
[19] = Well no.=8164, read-out: % of control remaining
[20] = Well no.=4318, read-out: % of control remaining
[21] = Well no.=1796, read-out: % of control remaining
[22] = Well no.=827, read-out: % of control remaining
[23] = Well no.=6836, read-out: % of control remaining
[24] = Well no.=6616, read-out: % of control remaining
[25] = Well no.=2358, read-out: % of control remaining
[26] = Well no.=1239, read-out: % of control remaining
[27] = Well no.=7461, read-out: % of control remaining
[28] = Well no.=7333, read-out: % of control remaining
[29] = Well no.=8514, read-out: % of control remaining
[30] = Well no.=6454, read-out: % of control remaining
[31] = Well no.=5235, read-out: % of control remaining
[32] = Well no.=232, read-out: % of control remaining
[33] = Well no.=8238, read-out: % of control remaining
[34] = Well no.=1196, read-out: % of control remaining
[35] = Well no.=4307, read-out: % of control remaining
[36] = Well no.=4499, read-out: % of control remaining
[37] = Well no.=6197, read-out: % of control remaining
[38] = Well no.=2348, read-out: % of control remaining

With `CCOc1nc2cccc(C(=O)O)c2n1Cc1ccc(-c2ccccc2-c2nnn[nH]2)cc1` [Candesartan] the remaining activity at 1.25 µM [1, 3] was 96.4%, the remaining activity at 1.25 µM [1, 4] was 103% and the remaining activity at 3.75 µM [2, 3] was 96.2%. For the same compound, the remaining activity at 3.75 µM [2, 4] was 105%.
In the case of `O=c1oc2cc(O)ccc2c2oc3cc(O)ccc3c12` [Coumestrol], the remaining activity at 1.25 µM [1, 5] is reported as 100% and the remaining activity at 3.75 µM [2, 5] is reported as 93.2%.
For `O=C(O)c1cc(/N=N/c2ccc(O)c(C(=O)O)c2)ccc1O` [Olsalazine (Disodium)], the remaining activity at 1.25 µM [1, 6] was 93.9% and the remaining activity at 3.75 µM [2, 6] was 92.2%.
`Nc1ccn(C[C@@H](CO)OCP(=O)(O)O)c(=O)n1` [Cidofovir (Vistide)] gave a remaining activity at 1.25 µM [1, 7] of 98.3% and a remaining activity at 3.75 µM [2, 7] of 101%.
Compound `C[C@@H]1C[C@H]2[C@@H]3CCC4=CC(=O)C=C[C@]4(C)[C@@]3(F)[C@@H](O)C[C@]2(C)[C@@]1(O)C(=O)CO` [Dexamethasone] has a remaining activity at 1.25 µM [1, 8] of 99.1%, a remaining activity at 1.25 µM [1, 9] of 96.6% and a remaining activity at 3.75 µM [2, 8] of 100%. It also gave a remaining activity at 3.75 µM [2, 9] of 98.7%.
`CNC(=C[N+](=O)[O-])NCCSCc1ccc(CN(C)C)o1` [Ranitidine.HCl] showed a remaining activity at 1.25 µM [1, 10] of 105% and a remaining activity at 3.75 µM [2, 10] of 105%.
`COCc1nnc(N2CC(Oc3ccc(F)cc3Cl)C2)n1-c1ccc(OC)nc1` [PF-3274167] was tested, and the remaining activity at 1.25 µM [1, 11] was 99.6% and the remaining activity at 3.75 µM [2, 11] was 97.3%.
In the case of `CC(C)[C@H](N=C(NS(=O)(=O)c1ccc(Cl)cc1)N1C[C@H](c2ccccc2)C(c2ccc(Cl)cc2)=N1)C(N)=O` [JD-5037], the remaining activity at 1.25 µM [1, 12] is reported as 97.2% and the remaining activity at 3.75 µM [2, 12] is reported as 82.1%.
`CCOC(=O)/C=C/c1ccc(O)c(OC)c1` [Ferulic acid ethylester] gave a remaining activity at 1.25 µM [1, 13] of 97.6% and a remaining activity at 3.75 µM [2, 13] of 103%.
With `Nc1ccc(-c2cccc3c(=O)cc(N4CCOCC4)oc23)cc1` [PI 828 - 2-(4-Morpholinyl)-8-(4-aminopheny)l-4H-1-benzopyran-4-one] the remaining activity at 1.25 µM [1, 14] was 98.1% and the remaining activity at 3.75 µM [2, 14] was 102%.
In the case of `CCCCC/C=C\C/C=C\CCCCCCCCCCC(=O)O` [12(Z), 15(Z)-Heneicosadienoic acid], the remaining activity at 1.25 µM [1, 15] is reported as 95.1% and the remaining activity at 3.75 µM [2, 15] is reported as 89.9%.
Work on `Clc1ccccc1C(c1ccccc1)(c1ccccc1)n1ccnc1` [Clotrimazole] yielded a remaining activity at 1.25 µM [1, 16] of 97.9% and a remaining activity at 3.75 µM [2, 16] of 99.9%.
With `CC(COc1ccc(/C=C/c2ccccc2)cc1)[N+](C)(C)C` (stereo not drawn) [N,N,N-trimethyl-1-(4-trans-stilbenoxy)-2-propylammonium iodide] the remaining activity at 1.25 µM [1, 17] was 98.1% and the remaining activity at 3.75 µM [2, 17] was 99.7%.
In the case of `CCCC[C@H](N)C(=O)O` [L-Norleucine], the remaining activity at 1.25 µM [1, 18] is reported as 103% and the remaining activity at 3.75 µM [2, 18] is reported as 106%.
`Cc1[nH]c(/C=C2\C(=O)Nc3ccc(S(=O)(=O)N(C)c4cccc(Cl)c4)cc32)c(C)c1C(=O)N1CCN(C)CC1` [SU11274] gave a remaining activity at 1.25 µM [1, 19] of 95.8% and a remaining activity at 3.75 µM [2, 19] of 94.4%.
Compound `CCCCCCCCCCC/C=C/CCCCC(=O)O` [6(E)-Octadecenoic acid] has a remaining activity at 1.25 µM [1, 20] of 105% and a remaining activity at 3.75 µM [2, 20] of 99.5%.
With `COC(=O)C1=C(C)NC(C)=C(C(=O)OCC(C)C)C1c1ccccc1[N+](=O)[O-]` (stereo not drawn) [Nisoldipine] the remaining activity at 1.25 µM [1, 21] was 100% and the remaining activity at 3.75 µM [2, 21] was 100%.
In the case of `O=c1[nH]ccc2c(O)cccc12` [1,5-Isoquinolinediol], the remaining activity at 1.25 µM [1, 22] is reported as 97.8% and the remaining activity at 3.75 µM [2, 22] is reported as 99.5%.
For `Cc1ncc(CNC(=O)N(CCCl)N=O)c(N)n1` [Nimustine (hydrochloride)], the remaining activity at 1.25 µM [1, 23] was 95.8% and the remaining activity at 3.75 µM [2, 23] was 95.5%.
In the case of `OCCOCCN1CCN(C2=Nc3ccccc3Sc3ccccc32)CC1` [Quetiapine], the remaining activity at 1.25 µM [1, 24] is reported as 98.1% and the remaining activity at 3.75 µM [2, 24] is reported as 98.6%.
Work on `O=Nc1c(-c2c(O)[nH]c3ccccc23)[nH]c2ccccc12` [Indirubin-3?-monoxime] yielded a remaining activity at 1.25 µM [1, 25] of 99.7% and a remaining activity at 3.75 µM [2, 25] of 106%.
Work on `c1ccc2c(c1)CCCC2C1=NCCN1` (stereo not drawn) [Tetrahydrozoline hydrochloride] yielded a remaining activity at 1.25 µM [1, 26] of 103% and a remaining activity at 3.75 µM [2, 26] of 103%.
In the case of `O=C(O)c1ccc(C(=O)O)o1` [2,5-Furandicarboxylic acid], the remaining activity at 1.25 µM [1, 27] is reported as 98% and the remaining activity at 3.75 µM [2, 27] is reported as 91.7%.
With `COc1cc(C(C)=O)ccc1OCCCN1CCC(c2noc3cc(F)ccc23)CC1` [Iloperidone] the remaining activity at 1.25 µM [1, 28] was 102% and the remaining activity at 3.75 µM [2, 28] was 91.9%.
`COc1cccc(OC)c1-c1ccc(C[C@H](NC(=O)c2c(Cl)cccc2Cl)C(=O)O)cc1` [TR-14035] was tested, and the remaining activity at 1.25 µM [1, 29] was 96.3% and the remaining activity at 3.75 µM [2, 29] was 93.8%.
In the case of `O=C(O)CSc1cc(NS(=O)(=O)c2ccc(Br)cc2)c2ccccc2c1O` [UMI-77], the remaining activity at 1.25 µM [1, 30] is reported as 95.1% and the remaining activity at 3.75 µM [2, 30] is reported as 93.1%.
For `C[C@]12CCC(=O)C=C1[C@@H]1C[C@@H]1[C@H]1[C@@H]3[C@@H]4C[C@@H]4[C@@]4(CCC(=O)O4)[C@@]3(C)CC[C@@H]12` [Drospirenone], the remaining activity at 1.25 µM [1, 31] was 99.4% and the remaining activity at 3.75 µM [2, 31] was 102%.
In the case of `COc1cccc(C(=O)NCCN2CCN(c3ccc(Cl)cc3)CC2)c1` [N-(2-[4-(4-Chlorophenyl)piperazin-1-yl]ethyl)-3-methoxybenzamide], the remaining activity at 1.25 µM [1, 32] is reported as 99.5% and the remaining activity at 3.75 µM [2, 32] is reported as 99.4%.
With `COc1ccccc1OCC(O)COC(N)=O` (stereo not drawn) [Methocarbamol] the remaining activity at 1.25 µM [1, 33] was 98% and the remaining activity at 3.75 µM [2, 33] was 94.6%.
For `C#C[C@]1(O)CC[C@H]2[C@@H]3CCC4=Cc5nc6nc7ccccc7n6cc5C[C@]4(C)[C@H]3CC[C@@]21C` [WIN 62,577], the remaining activity at 1.25 µM [1, 34] was 99.9% and the remaining activity at 3.75 µM [2, 34] was 97.4%.
Compound `CCCCC/C=C\C/C=C\C/C=C\CCCCC(=O)O` [γ-Linolenic acid (18:3 n-6)] has a remaining activity at 1.25 µM [1, 35] of 95% and a remaining activity at 3.75 µM [2, 35] of 100%.
`CCCCCCCCCCCCCCCC(=O)N[C@@H](COP(=O)(O)O)C(=O)O` [L-NASPA] was tested, and the remaining activity at 1.25 µM [1, 36] was 91.6% and the remaining activity at 3.75 µM [2, 36] was 94.8%.
Compound `CC(=O)[C@H]1CC[C@H]2[C@@H]3CC[C@H]4C[C@H](O)CC[C@]4(C)[C@H]3CC[C@]12C` [Allopregnanolone] has a remaining activity at 1.25 µM [1, 37] of 105% and a remaining activity at 3.75 µM [2, 37] of 107%.
`COc1cccc(-c2cc(=O)c3ccccc3o2)c1N` [PD 98059 - 2-(2-Amino-3-methoxyphenyl)-4H-1-benzopyran-4-one] showed a remaining activity at 1.25 µM [1, 38] of 98.4% and a remaining activity at 3.75 µM [2, 38] of 96.8%.
